Values quoted from earlier work in paper PMC5014530 (Molecular Therapy. Nucleic Acids, 2016).

System: mitochondrial membranes

## (KLAKLA)2
  Mechanism of apoptosis induction: disrupts mitochondrial membranes to cause apoptosis
